Results taken from US11925656B2, “Biological total joint replacement” (priority 2014, dated 2024).

Tests used:
lubricin = assay: Lubricin in synovium by ELISA, rabbit arthritis model; type: in vivo
Description: (§1) The study was approved by the Institutional Animal Care and Use Committee (IACUC) of Thomas D. Morris, Inc. 28 New Zeeland White rabbits were selected for the study. Six such were randomly assigned to one of four groups; prophylactic cyanidin-3-glycoside (C3G)(referred to figures as Cl 1-42), prophylactic protocatechuic acid (PCA)(referred to in figures as PCA 1-42), therapeutic C3G (referred to in figures as Cl 42-70), and therapeutic PCA (referred to in figures as PCA 42-70). There were four controls, two each to the prophylactic and therapeutic groups.
(§2) The prophylactic groups were given PROC3G™ by Chromadex™ at a dose of 30 mg/kg of body weight of either C3G or PCA by mouth, 7 times per week for 42 days. The therapeutic groups' treatment was initiated on day 42 with a daily dose of PROC3G™ by Chromadex™ 7 times per week for 4 weeks. The dose of 30 mg of cyanidin-3-glucoside per kg of body weight calculates to be 0.177 millimoles per kg body weight. The dose of PCA was the same in terms of millimoles per kg body weight.
(§3) The experimental rabbits underwent surgery with an intent to create a severe degenerative arthritis by cutting the medial collateral ligament, the anterior cruciate ligament and removing the medial meniscus. A partial thickness laceration was made longitudinally on the lateral femoral condyle for future assessment of potential for repair. The surgery was performed by two licensed veterinarians. One surgeon was very experienced. The other surgeon was a recent graduate.
(§4) At necropsy, the synovial fluid was harvested percutaneously and upon arthrotomy. The synovium was harvested from posterior compartment. The patella and adjacent synovium was procured as a separate specimen as was the medial and lateral condyle.
(§5) The synovial fluid and half of the synovium was frozen and sent to BioBoston Laboratory for chemical analysis. The other half of the synovium and bone was sent to McClinchery Histology in Stockbridge, Mich. for histological preparation and staining. […]
(§6) Synovial Tissue (Synovium)—Detected by ELISA

IL-1 beta = IL-1 beta in synovium by ELISA, rabbit arthritis model; type: in vivo; conditions: therapeutic groups, oral days 42-70, vs control
Description: as §1
(§7) The prophylactic groups were given PROC3G™ by Chromadex™ at a dose of 30 mg/kg of body weight of either C3G or PCA by mouth, 7 times per week for 42 days. The therapeutic groups' treatment was initiated on day 42 with a daily dose of PROC3G™ by Chromadex™ 7 times per week for 4 weeks. The dose of 30 mg of cyanidin-3-glucoside per kg of body weight calculates to be 0.177 millimoles per kg body weight. The dose of PCA was the same in terms of millimoles per kg body weight. […]
Interleukin-1 beta (IL-1p) also known as catabolic, is a cytokine protein. […] Increased production of IL-1B causes a number of different auto-inflammatory syndromes. • Synovial Fluid—Detected by ELISA • Levels of IL-1 beta were decreased in all groups. See FIG. 2A. • Synovial Tissue (Synovium)—Detected by ELISA

MMP-13 = MMP-13 in synovium by ELISA, rabbit surgically induced knee arthritis; type: in vivo; conditions: vs untreated control, not statistically significant
Description: as §1, §2, §3, §4
(§8) The synovial fluid and half of the synovium was frozen and sent to BioBoston Laboratory for chemical analysis. The other half of the synovium and bone was sent to McClinchery Histology in Stockbridge, Mich. for histological preparation and staining. Patellar slides were sent to BioBoston Contract Laboratories for histochemical staining and ICRS grading. Sample slides were examined for Lubricin at Myron Spector laboratory.
as §6

MMP3 = MMP3 in synovial fluid by ELISA, rabbit arthritis model; type: in vivo; conditions: therapeutic groups, oral days 42-70, vs control
Description: as §1, §7
MMP3 is known as matrix metallopeptidase 3, or stromelysin 1 or progelatinase. […] See FIG. 2C. • Synovial Tissue (Synovium)—Detected by ELISA • MMP-3 levels were reduced in all four groups. See FIG. 9B. • Synovial Tissue (Synovium)—Gene Expression Level Detected by Real-Time PCR • MMP-3 gene expression was decreased in all groups. […]

ADAMTS-5 gene expression = ADAMTS-5 gene expression in synovium by real-time PCR, rabbit arthritis model; type: in vivo; conditions: therapeutic groups, oral days 42-70, vs control
Description: as §1, §2
(§9) The experimental rabbits underwent surgery with an intent to create a severe degenerative arthritis by cutting the medial collateral ligament, the anterior cruciate ligament and removing the medial meniscus. […]
Synovial Tissue (Synovium)—Gene Expression Level Detected by Real-Time PCR

MMP-1 = MMP-1 in synovium by ELISA, rabbit arthritis model; type: in vivo; conditions: therapeutic group, oral days 42-70, vs control
Description: as §1, §2
as §3, with “The surgery was performed by two licensed veterinarians. One surgeon was very experienced. The other surgeon was a recent graduate.” left out

TGF-beta = TGF-beta in synovium by ELISA, rabbit arthritis model; type: in vivo; conditions: therapeutic group, oral days 42-70, vs control
Description: as §1
The prophylactic groups were given PROC3G™ by Chromadex™ at a dose of 30 mg/kg of body weight of either C3G or PCA by mouth, 7 times per week for 42 days. The therapeutic groups' treatment was initiated on day 42 with a daily dose of PROC3G™ by Chromadex™ 7 times per week for 4 weeks. […]
TGF-β induces apoptosis in numerous cell types. […] It is a type of cytokine which plays a role in immunity, cancer, bronchial asthma, heart disease, diabetes, hereditary hemorrhagic telangiectasia, Marfan syndrome, vascular Ehlers-Danlos syndrome Loeys-Dietz syndrome, Parkinson's disease, and AIDS. • Synovial Fluid—Detected by ELISA • TGF-beta was decreased in all groups. See FIG. 2B. • Synovial Tissue (Synovium)—Detected by ELISA • TGF-beta was increased in the C3G therapeutic group.

C-reactive protein (CRP) = C-reactive protein (CRP) in plasma after knee surgery; type: in vivo, rabbit
Method: C-reactive protein (CRP) is a protein found in the blood plasma, the levels of which rise in response to inflammation (i.e., C-reactive protein is an acute-phase protein). Its physiological role is to bind to phosphocholine expressed on the surface of dead or dying cells (and some types of bacteria) in order to activate the complement system via the C1Q complex. CRP rises within two hours of the onset of inflammation, up to a 50,000-fold, and peaks at 48 hours. […] CRP is thus a screen for inflammation.
Knee surgery was performed to create a severe irreparable degenerative knee joint, which in turn elevated the CRP in the plasma to average of […]. A historical normal amount of CRP is 3.15 micrograms/mL. See Sun H, et al., Am J Pathol. October 2005; 167(4): 1139-1148. Rabbit CRP levels are close to the mean values of healthy middle-aged humans (2.82 mg/L) reported in the literature. See Ockene I S, et al., Clin Chem. 2001; 47:444-450.
The controls in the study were animals that had surgery and received no treatment. The prophylaxis test groups had the surgery and received 6 weeks of oral C-3-G or PCA 7 times per week as described in example 1. The therapeutic treatment group had surgery, received no treatment for 41 days and then at day 42 received oral C-3-G or PCA 7 times per week as described in example 1.

TNF-alpha = TNF-alpha in synovial fluid by ELISA, rabbit arthritis model; type: in vivo; conditions: therapeutic groups, oral 4 weeks, vs control; not statistically significant
Description: as §1, §2, §9
(§10) Synovial Fluid—Detected by ELISA

ADAMTS-5 = ADAMTS-5 in synovial fluid by ELISA, rabbit arthritis model; type: in vivo
Description: as §1, §2, §3, §4, §5, §10

TIMP-1 = TIMP-1 in synovial fluid by ELISA, rabbit arthritis model; type: in vivo; conditions: statistical significance not evident
Description: as §1, §2, §9, §10

IGF-1 = IGF-1 in plasma, rabbit arthritis model; type: in vivo; conditions: control group 25 PG/ML
Description: as §1, §2, §3
Blood testing was performed prior to necropsy on C3G, PCA, glucose, MMP-3 and IGF-1 to assess any systemic effects.

MMP-3 = MMP-3 expression in cartilage, histochemical staining and scoring, rabbit arthritis model; type: in vivo
Description: as §1, §2, §3, §4, §8
MMP3 is known as matrix metallopeptidase 3, or stromelysin 1 or progelatinase. Proteins of the matrix metalloproteinase (MMP) family are involved in the breakdown of 20 extracellular matrix in normal physiological processes, such as embryonic development, reproduction, and tissue remodeling, as well as in disease processes, such as arthritis and metastasis. […] See FIG. 2C. • Synovial Tissue (Synovium)—Detected by ELISA • MMP-3 levels were reduced in all four groups. See FIG. 9B. • Synovial Tissue (Synovium)—Gene Expression Level Detected by Real-Time PCR • MMP-3 gene expression was decreased in all groups. See FIG. 13A. • Histochemical Scoring Analysis

lymphocytes = assay: Number of lymphocytes in synovial fluid, rabbit arthritis model; type: in vivo; conditions: therapeutic groups, oral days 42-70, vs control
Description: as §1, §2, §3, §4
In addition to testing for the increase or decrease of various factors and cytokines, tests were run to count the number of white blood cells, including polymorphonuclear leukocytes (PMN), macrophages (Mac) and lymphocytes (Lym). […]

[1] = prophylactic groups, oral days 1-42, vs control
[2] = therapeutic groups, oral days 42-70, vs control
[3] = prophylactic groups, oral days 1-42
[4] = therapeutic groups, oral days 42-70

OC[C@H]1O[C@@H](Oc2cc3c(O)cc(O)cc3[o+]c2-c2ccc(O)c(O)c2)[C@H](O)[C@@H](O)[C@@H]1O [C3G, cyanidin-3-glucoside, reference compound]
lubricin in synovium (lubricin; [1]): increased
lubricin in synovium (lubricin; [2]): increased
levels of IL-1 beta in synovium (IL-1 beta): decreased
MMP-13 levels in synovium (MMP-13; prophylactic groups, oral 7 times per week days 1-42 (C3G 30 mg/kg, PCA 26.4 mg/kg)): increased slightly
MMP-13 levels in synovium (MMP-13; therapeutic groups, oral 7 times per week days 42-70 (C3G 30 mg/kg, PCA 26.4 mg/kg)): slightly decreased
MMP3 in synovial fluid (MMP3): decreased
ADAMTS-5 gene expression in synovium (ADAMTS-5 gene expression): decreased
MMP-1 in synovium (MMP-1): decrease
TGF-beta in synovium (TGF-beta): increased
CRP, an indicator of inflammation (C-reactive protein (CRP); given by oral route immediately after injury): kept to normal levels
plasma CRP level (C-reactive protein (CRP); prophylaxis test group, 6 weeks oral treatment from surgery, untreated control at 42 days 8.8 mg/mL): 3.1 micrograms/mL
plasma CRP level (C-reactive protein (CRP); therapeutic group, no treatment for 6 weeks after surgery, then 4 weeks oral treatment): 28.3 mg/mL
TNF-alpha levels in synovial fluid (TNF-alpha): slight increase
ADAMTS-5 in synovial fluid (ADAMTS-5; [1]): decreased
ADAMTS-5 in synovial fluid (ADAMTS-5; [2]): decreased
TIMP-1 levels in synovial fluid (TIMP-1; [1]): elevated
TIMP-1 levels in synovial fluid (TIMP-1; [2]): elevated
IGF-1 in the plasma (IGF-1; [3]): 15.8 pg/mL
IGF-1 in the plasma (IGF-1; [4]): 28.5 pg/mL
histochemical staining for the presence of MMP-3 in cartilage (MMP-3; [3]): very minimal positive stain
MMP-3 expression in cartilage (MMP-3; [1]): reduced
histochemical staining for the presence of MMP-3 in cartilage (MMP-3; [4]): no staining
MMP-3 expression in cartilage (MMP-3; [2]): reduced
number of lymphocytes in synovial fluid (lymphocytes): decreased
